The values that follow come from US20220273659A1, “HETEROCYCLIC COMPOUNDS AS KINASE INHIBITORS” (NUVATION BIO INC., priority 2019, published 2022).

The structures appear in SMILES notation. Some results are limits rather than exact numbers.

For one assay, the target named is T1, CDK6 (Homo sapiens, UniProt Q00534).
T1 construct: purchased Invitrogen PR8422B
Nature of the assay: In vitro kinase inhibition IC50, luminescence (ADP Glo), retinoblastoma substrate. The format is biochemical. The settings on record: read-out: CDK6/D1 IC50. The essentials:
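Recombinant CDK6 (5 nM) with retinoblastoma substrate (1 μM) and 25 μM ATP, compound at final 0.1–200 nM, incubated 2 h at room temperature. ADP formed detected by ADP-Glo luminescence. IC50 from four-parameter logistic fit of percent inhibition.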

The next assay deals with T2, CDK4 (Homo sapiens, UniProt P11802).
T2 construct: purchased Invitrogen PR8064A
The assay is described as above. Conditions: read-out: CDK4/D1 IC50. Type of assay: biochemical. In a few lines: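 CDK4 enzyme (5 nM, Invitrogen) was combined with test compound and a mix of retinoblastoma substrate (1 μM) plus ATP (25 μM) in kinase buffer, 30 μL/well in 96-well half area white plates. After 2H at room temperature, ADP Glo reagent stopped the reaction for 45 min, then detection reagent was added and luminescence was read.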

In assay [1] the test system is Rb Ser780 phosphorylation in MCF-7 cells. Nature of the assay: Determination of pRb levels (Ser780 phosphorylation, ELISA). The format is cell-based. The settings on record: Homo sapiens; for inhibition at 0.01 µM: MCF7, 0.01 μM; for inhibition at 0.01 µM / inhibition at 0.1 µM / inhibition at 1 µM: 24H treatment, percentage of vehicle control; for inhibition at 0.1 µM: MCF7, 0.1 μM; for inhibition at 1 µM: MCF7, 1 μM. The method, then: Hypo-phosphorylation of the retinoblastoma protein (Rb) by cyclin D:Cdk4/6 complexes results in active Rb, which is a clinically relevant biomarker associated with CDK4 or CDK6 inhibition. As a confirmatory measure of functional activity of CDK4/6, the Ser780 phosphorylation state of Rb was assessed. MCF-7 cells were plated at 2.5×10^5 to 3.0×10^6 cells/well in 6-well cell-culture plates and incubated at 37° C. for 24H in MEM medium supplemented with 10% FBS. Cells were treated for 24H with a medium containing test compound at various concentrations (e.g., 0.01, 0.1, […]) or with DMSO (≤1%) in duplicate. After incubation period, the media was removed, and cells were rinsed once with ice-cold PBS and lysed with 0.2 mL of Cell Lysis Buffer containing 1 mM PMSF and Protease Inhibitor. Protein concentration was estimated following Bradford method. The lysis and the Rb measurements were performed following the manufacturer's ELISA kit protocols and buffers (Cell Signaling Technology, Cat. No.: 13016C). Rb inhibition of test compounds was calculated as percentage of vehicle control. In some cases, a nonlinear regression model with a sigmoidal dose response and variable slope within GraphPad Prism was used to calculate the IC50 value of Rb inhibition for individual test compounds.

A further assay addresses T3, PI3Kδ kinase (Homo sapiens, UniProt O00329).
T3 construct: purchased Reaction Biology Corporation (assay service)
Nature of the assay: PI3Kδ kinase assay (ADP-Glo, Reaction Biology). Type of assay: biochemical. The essentials:
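Kinase in Tris-HCl 40 mM pH 7.5, MgCl2 20 mM, orthovanadate 3 mM, DTT 2 mM, 0.05% CHAPS, 1% DMSO, preincubated 10 min at room temperature with compound (about 0.5 nM–100 μM). ATP started a 30-min reaction at 30 °C. ADP-Glo luminescence converted to μM ADP via standard curve; IC50 from nonlinear regression.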

Assay [2] concerns BT-549 breast ductal carcinoma cells. Nature of the assay: Cancer cell proliferation assay, single agent (cell viability). The settings on record: Homo sapiens, Table 4, Rb negative, treatment 24 Hr, Cell Titer-Glo or resazurin. The format is cell-based. The essentials: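 Cells seeded day 1, then exposed on day 2 to 7–9 compound concentrations (e.g. 1.1 nM–10 μM); BT-549 for 24 h, MCF-7 and DU4475 for 144 h with medium change at 72 h. Viability by CellTiter-Glo or resazurin; IC50 from variable-slope sigmoidal fit.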

T3 sequence (O00329 whole entry): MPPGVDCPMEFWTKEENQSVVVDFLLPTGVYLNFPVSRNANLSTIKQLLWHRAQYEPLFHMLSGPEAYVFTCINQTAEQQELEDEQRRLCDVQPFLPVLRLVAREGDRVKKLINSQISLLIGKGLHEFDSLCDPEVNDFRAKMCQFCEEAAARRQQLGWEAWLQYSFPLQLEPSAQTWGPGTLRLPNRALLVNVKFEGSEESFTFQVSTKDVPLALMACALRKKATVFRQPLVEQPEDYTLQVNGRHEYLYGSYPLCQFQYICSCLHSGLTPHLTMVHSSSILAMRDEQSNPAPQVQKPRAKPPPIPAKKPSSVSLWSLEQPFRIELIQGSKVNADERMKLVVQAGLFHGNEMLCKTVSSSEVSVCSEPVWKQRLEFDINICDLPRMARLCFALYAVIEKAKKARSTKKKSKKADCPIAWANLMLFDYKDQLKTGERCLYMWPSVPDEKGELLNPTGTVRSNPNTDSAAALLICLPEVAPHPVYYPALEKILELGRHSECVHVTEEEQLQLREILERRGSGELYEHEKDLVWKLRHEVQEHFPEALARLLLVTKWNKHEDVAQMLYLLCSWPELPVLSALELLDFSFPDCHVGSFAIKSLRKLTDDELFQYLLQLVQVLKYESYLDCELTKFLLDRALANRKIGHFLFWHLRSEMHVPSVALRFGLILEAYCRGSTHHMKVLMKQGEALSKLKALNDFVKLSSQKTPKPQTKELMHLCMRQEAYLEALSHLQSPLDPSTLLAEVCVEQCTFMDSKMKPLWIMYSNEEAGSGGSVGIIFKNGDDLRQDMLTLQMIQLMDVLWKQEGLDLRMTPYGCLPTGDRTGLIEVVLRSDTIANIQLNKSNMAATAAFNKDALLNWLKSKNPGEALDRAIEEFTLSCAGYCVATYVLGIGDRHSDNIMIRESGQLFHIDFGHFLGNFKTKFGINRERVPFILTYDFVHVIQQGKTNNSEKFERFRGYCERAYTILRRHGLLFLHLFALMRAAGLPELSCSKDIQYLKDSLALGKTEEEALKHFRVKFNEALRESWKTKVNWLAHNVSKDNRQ
T3 sequence (P27986 whole entry partner): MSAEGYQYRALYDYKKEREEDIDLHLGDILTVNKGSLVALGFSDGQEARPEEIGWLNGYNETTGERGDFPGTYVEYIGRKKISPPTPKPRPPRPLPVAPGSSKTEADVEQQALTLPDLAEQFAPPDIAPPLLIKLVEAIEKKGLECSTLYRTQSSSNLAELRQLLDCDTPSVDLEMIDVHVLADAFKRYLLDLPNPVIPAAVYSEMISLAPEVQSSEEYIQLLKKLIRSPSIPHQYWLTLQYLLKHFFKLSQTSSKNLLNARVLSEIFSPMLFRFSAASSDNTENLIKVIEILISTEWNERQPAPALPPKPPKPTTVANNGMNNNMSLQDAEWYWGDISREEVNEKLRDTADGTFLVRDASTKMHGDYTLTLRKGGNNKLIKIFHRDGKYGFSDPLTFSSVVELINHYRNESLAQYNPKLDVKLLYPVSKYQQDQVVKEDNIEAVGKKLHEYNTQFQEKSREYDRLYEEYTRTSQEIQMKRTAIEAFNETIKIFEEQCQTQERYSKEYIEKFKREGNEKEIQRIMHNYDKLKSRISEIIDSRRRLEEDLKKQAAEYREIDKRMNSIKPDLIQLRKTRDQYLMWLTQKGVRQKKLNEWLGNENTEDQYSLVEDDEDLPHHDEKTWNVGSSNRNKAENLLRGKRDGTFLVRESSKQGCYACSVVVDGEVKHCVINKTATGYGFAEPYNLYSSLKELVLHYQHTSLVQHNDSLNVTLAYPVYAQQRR
T1 sequence (Q00534 whole entry): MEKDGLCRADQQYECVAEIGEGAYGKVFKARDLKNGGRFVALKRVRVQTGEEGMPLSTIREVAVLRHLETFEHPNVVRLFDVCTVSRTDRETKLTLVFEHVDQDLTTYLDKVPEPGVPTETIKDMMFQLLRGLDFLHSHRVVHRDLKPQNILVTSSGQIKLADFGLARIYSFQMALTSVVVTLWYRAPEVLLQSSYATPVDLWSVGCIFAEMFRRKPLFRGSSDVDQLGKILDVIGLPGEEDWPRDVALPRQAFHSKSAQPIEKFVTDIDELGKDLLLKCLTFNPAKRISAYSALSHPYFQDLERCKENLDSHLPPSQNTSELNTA
T1 sequence (P24385 whole entry partner): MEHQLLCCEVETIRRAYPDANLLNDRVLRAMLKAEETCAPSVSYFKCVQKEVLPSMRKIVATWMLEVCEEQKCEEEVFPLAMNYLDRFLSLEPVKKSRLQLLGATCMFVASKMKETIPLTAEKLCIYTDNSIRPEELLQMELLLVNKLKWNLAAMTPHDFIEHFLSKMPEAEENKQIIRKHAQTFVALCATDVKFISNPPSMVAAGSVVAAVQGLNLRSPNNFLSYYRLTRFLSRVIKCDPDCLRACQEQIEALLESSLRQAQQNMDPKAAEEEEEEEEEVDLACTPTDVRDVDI
T2 sequence (P11802 whole entry): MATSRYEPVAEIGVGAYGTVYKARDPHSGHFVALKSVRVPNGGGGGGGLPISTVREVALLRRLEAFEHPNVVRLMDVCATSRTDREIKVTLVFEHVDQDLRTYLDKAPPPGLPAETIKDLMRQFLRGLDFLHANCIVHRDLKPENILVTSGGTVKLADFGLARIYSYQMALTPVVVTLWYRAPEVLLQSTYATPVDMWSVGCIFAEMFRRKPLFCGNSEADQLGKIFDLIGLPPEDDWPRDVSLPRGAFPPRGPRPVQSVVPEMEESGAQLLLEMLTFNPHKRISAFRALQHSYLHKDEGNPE
T2 sequence (P24385 whole entry partner): as the sequence (P24385 whole entry partner) above

`CS(=O)(=O)N1CCC(Nc2ncc3cc(C#N)c(=O)n(C4CCCC4)c3n2)CC1` [Compound No. 93, 8-cyclopentyl-2-((1-(methylsulfonyl)piperidin-4-yl)amino)-7-oxo-7,8-dihydropyrido[2,3-d]pyrimidine-6-carbonitrile]: the IC50 is 4 nM at CDK6; 2.6 nM on CDK4; < 123 nM in assay [1] (MCF7, 24H treatment, read-out: Inhibition of Rb phosphorylation IC50); 12100 nM at PI3Kδ kinase.
`N#Cc1cc2cnc(Nc3ccc4c(c3)CCNC4)nc2n(C2CC3CC3C2)c1=O` (stereo not drawn) [Compound No. 342, 8-(bicyclo[3.1.0]hexan-3-yl)-7-oxo-2-((1,2,3,4-tetrahydroisoquinolin-6-yl)amino)-7,8-dihydropyrido[2,3-d]pyrimidine-6-carbonitrile]: the figures for the IC50 at CDK6, at CDK4 and against PI3Kδ kinase were 22 nM, 10 nM and 421 nM, respectively.
Taken in the same sequence, the figures for `CS(=O)(=O)N1CCC(Nc2ncc3cc(C#N)c(=O)n(C4CCC(F)(F)C4)c3n2)CC1` (racemic) [Compound No. 345, 8-(3,3-difluorocyclopentyl)-2-((1-(methylsulfonyl)piperidin-4-yl)amino)-7-oxo-7,8-dihydropyrido[2,3-d]pyrimidine-6-carbonitrile] were 55 nM, 40 nM and > 50000 nM.
Taken in the same sequence, the figures for `CS(=O)(=O)N1CCC(Nc2ncc3cc(C#N)c(=O)n(C4CC5CC5C4)c3n2)CC1` (stereo not drawn) [Compound No. 341, 8-(bicyclo[3.1.0]hexan-3-yl)-2-((1-(methylsulfonyl)piperidin-4-yl)amino)-7-oxo-7,8-dihydropyrido[2,3-d]pyrimidine-6-carbonitrile] were 8.5 nM, 3.5 nM and > 50000 nM.
For `N#Cc1cc2cnc(Nc3ccc4c(c3)CCNC4)nc2n(C2CCCC2)c1=O` [Compound No. 31, 8-cyclopentyl-7-oxo-2-((1,2,3,4-tetrahydroisoquinolin-6-yl)amino)-7,8-dihydropyrido[2,3-d]pyrimidine-6-carbonitrile], the IC50 stood at 9 nM at CDK6, 5 nM on CDK4, 1110 nM in assay [2] and 128 nM on PI3Kδ kinase. The same compound yielded an inhibition at 0.01 µM in assay [1] of 1%. The compound also yielded an inhibition at 0.1 µM in assay [1] of 27%. In assay [1], testing at 1 µM gave an inhibition of 95%.
On to `N#Cc1cc2cnc(Nc3ccc(N4CCNCC4)c(F)c3)nc2n(C2CCCC2)c1=O` [Compound No. 13, 8-cyclopentyl-2-((3-fluoro-4-(piperazin-1-yl)phenyl)amino)-7-oxo-7,8-dihydropyrido[2,3-d]pyrimidine-6-carbonitrile], for which the IC50 at CDK6 was found to be 1.5 nM; on CDK4 it was 3.5 nM; in assay [2], 1400 nM; at PI3Kδ kinase, 561 nM. The inhibition at 0.01 µM in assay [1] worked out at 35%. Also, testing at 0.1 µM in assay [1] gave an inhibition of 58%. The inhibition at 1 µM in assay [1] was determined as 93%.
Turning to `N#Cc1cc2cnc(Nc3ccc4c(c3)CNCC4)nc2n(C2CCCC2)c1=O` [Compound No. 29, 8-cyclopentyl-7-oxo-2-((1,2,3,4-tetrahydroisoquinolin-7-yl)amino)-7,8-dihydropyrido[2,3-d]pyrimidine-6-carbonitrile], the IC50 on CDK6 worked out at 13 nM. In addition, the IC50 on CDK4 amounted to 7 nM. In assay [1], this compound registered an inhibition at 0.01 µM of 12%, an inhibition at 0.1 µM of 27% and an inhibition at 1 µM of 44%. The IC50 at PI3Kδ kinase amounted to 552 nM.
